From patent US20140073639A1 (priority 2012, published 2014)
Converted amounts (≈) assume the structure as drawn.

Experiments:
[1] = assay type: cell-based
[2] = tested on: S. MRSA; assay: microbe, parasite or virus in culture; assay type: cell-based; conditions: 3 μM

SMILES	MIC, 25% Serum [1]	MIC, No Serum [1]	S. MRSA 3 μM (growth inhibition) [2]
O=C1NC(=S)N/C1=C/c1ccc(-c2ccc(Cl)c(Cl)c2)o1 [Cmpd 63]	>250 µM	62.5 µM (≈ 21.2 µg/mL)	–
O=C([O-])C(Cc1ccccc1)N1C(=O)/C(=C\c2ccc(-c3ccc(Cl)c(Cl)c3)o2)NC1=S.[Na+] (stereo not shown) [Cmpd 66]	>250 µM	7.8 µM	0.9
O=C(O)C(Cc1ccccc1)N1C(=O)/C(=C\c2ccc(-c3ccc(Cl)nc3Cl)o2)NC1=S (stereo not shown) [Cmpd 73]	>250 µM	125 µM (≈ 61 µg/mL)	–
O=C(O)c1cc(-c2ccc(/C=C3/NC(=S)N(C(Cc4ccccc4)C(=O)O)C3=O)o2)ccc1Cl (stereo not shown) [Cmpd 74]	>250 µM	>250 µM	–
O=C(O)C(Cc1ccccc1)N1C(=O)/C(=C\c2ccc(-c3ccc(Cl)c(Cl)c3)[nH]2)NC1=S (stereo not shown) [Cmpd 75]	>250 µM	62.5 µM (≈ 30.4 µg/mL)	–
O=C(O)C(Cc1ccccc1)N1C(=O)/C(=C\c2ccc(-c3ccc(Cl)c(Cl)n3)o2)NC1=S (stereo not shown) [Cmpd 76]	>250 µM	62.5 µM (≈ 30.5 µg/mL)	–
O=C(O)c1cccc(N2C(=O)/C(=C\c3ccc(-c4ccc(Cl)c(Cl)c4)o3)NC2=S)c1 [Cmpd 77]	>250 µM	31.3 µM (≈ 14.4 µg/mL)	–
O=C(O)C(Cc1ccccc1)N1C(=O)/C(=C\c2ncc(-c3ccc(Cl)c(Cl)c3)o2)NC1=S (stereo not shown) [Cmpd 78]	>250 µM	250 µM (≈ 122 µg/mL)	–
O=C(O)CN1C(=O)N/C(=C/c2ccc(-c3ccc(Cl)c(Cl)c3)o2)C1=O [Cmpd 79]	>250 µM	>250 µM	–
O=C(O)C(Cc1ccccc1)N1C(=O)/C(=C\c2ccc(-c3cc(Cl)nc(Cl)c3)o2)NC1=S (stereo not shown) [Cmpd 80]	>250 µM	62.5 µM (≈ 30.5 µg/mL)	–
CNC(=O)c1ccc(-c2ccc(/C=C3/NC(=S)N(C(Cc4ccccc4)C(=O)O)C3=O)o2)cc1 (stereo not shown) [Cmpd 81]	>250 µM	>250 µM	–
CNC(=O)c1ccc(Cl)c(-c2ccc(/C=C3/NC(=S)N(C(Cc4ccccc4)C(=O)O)C3=O)o2)c1Cl (stereo not shown) [Cmpd 82]	>250 µM	>250 µM	–
CNC(=O)c1cc(-c2ccc(/C=C3/NC(=S)N(C(Cc4ccccc4)C(=O)O)C3=O)o2)ccc1Cl (stereo not shown) [Cmpd 83]	>250 µM	>250 µM	–
O=C(O)C(Cc1ccccc1)N1C(=O)/C(=C\c2oc(Cl)nc2Cl)NC1=S (stereo not shown) [Cmpd 84]	>250 µM	>250 µM	–
CNC(=O)c1ccc(-c2ccc(/C=C3/NC(=S)N(C(Cc4ccccc4)C(=O)O)C3=O)o2)cc1Cl (stereo not shown) [Cmpd 85]	>250 µM	>250 µM	–
C=CCN1C(=O)/C(=C\c2ccc(-c3ccc(Cl)c(Cl)c3)o2)NC1=S [Cmpd 86]	>250 µM	>250 µM	–
CC(C)[C@H](C(=O)O)N1C(=O)C[C@H](NC(=O)c2cocc2-c2ccc(Cl)cc2)C1=O [Cmpd 87]	>250 µM	>250 µM	–
C=CCN1C(=O)/C(=C\c2cc(OCC)c(O)c(Br)c2Cl)NC1=S [Cmpd 88]	>250 µM	>250 µM	–
C=CCN1C(=O)/C(=C\c2cc(OC)c(O)c(Cl)c2Cl)NC1=S [Cmpd 89]	>250 µM	250 µM (≈ 89.8 µg/mL)	–
COc1cc(/C=C2/NC(=S)N(C(Cc3ccccc3)C(=O)O)C2=O)c(Cl)c(Cl)c1O (stereo not shown) [Cmpd 90]	>250 µM	>250 µM	–
O=C(O)C(Cc1ccccc1)N1C(=O)/C(=C\c2cc3cc(Br)ccc3o2)NC1=S (stereo not shown) [Cmpd 91]	>250 µM	125 µM (≈ 58.9 µg/mL)	–
